Assay results as given in US7432400B2, “Biphenylene compounds” (Ciba Specialty Chemicals Corp., priority 2001, dated 2008).
Values joined by “and” are separate entries in the source; they are usually repeats but may differ in a detail not shown here. Equal entries are not always repeated.

Experiments:
[1] = UV absorption (λmax) of the biphenyl compounds as UV filters; type: physicochemical
[2] = as above; type: physicochemical; conditions: measured in acetonitrile 98/water 2
Description: By way of example, the following Table lists a number of biphenyl compounds according to the invention together with their λmax values (measured in acetonitrile 98/water 2).

## O=C1NC(=O)C(=Cc2ccc(-c3ccc(C=C4C(=O)NC(=O)NC4=O)cc3)cc2)C(=O)N1 [Example 15]
[1]; in DMSO
  λmax (DMSO): 396 nm
[1]; in DMSO, at λmax 396 nm
  E (1%, 1 cm): 1134

## O=C1OCCCC/C1=C\c1ccc(-c2ccc(/C=C3\CCCCOC3=O)cc2)cc1 [Example 10]
[2]
  λmax [nm]: 361 nm

## COc1ccc2c(c1)CC/C(=C\c1ccc(-c3ccc(/C=C4\CCc5cc(OC)ccc5C4=O)cc3)cc1)C2=O [Example 3]
[2]
  λmax [nm]: 351 nm

## O=C1/C(=C/c2ccc(-c3ccc(/C=C4/C(=O)C5CCN4CC5)cc3)cc2)N2CCC1CC2 [Example 13]
[1]; in dioxane
  λmax (dioxane): 235 nm and 350 nm

## O=C1CCCCC/C1=C\c1ccc(-c2ccc(/C=C3\CCCCCC3=O)cc2)cc1 [Example 6]
[2]
  λmax [nm]: 337 nm

## O=C(/C=C/c1ccc(-c2ccc(/C=C/C(=O)c3ccc(F)cc3)cc2)cc1)c1ccc(F)cc1 [Example 5]
[2]
  λmax [nm]: 358 nm

## O=C(/C(=C/c1ccc(-c2ccc(/C=C(/C(=O)c3ccccc3)c3ccccc3)cc2)cc1)c1ccccc1)c1ccccc1 [Example 9]
[2]
  λmax [nm]: 326 nm

## C/C(=C\c1ccc(-c2ccc(/C=C(\C)C(=O)c3ccccc3)cc2)cc1)C(=O)c1ccccc1 [Example 8]
[2]
  λmax [nm]: 326 nm

## CC(C)(C)C1CCC(=O)/C(=C/c2ccc(-c3ccc(/C=C4\CC(C(C)(C)C)CCC4=O)cc3)cc2)C1 (centres unmarked) [Example 1]
[2]
  λmax [nm]: 357 nm

## O=C1CCCCCC/C1=C\c1ccc(-c2ccc(/C=C3\CCCCCCC3=O)cc2)cc1 [Example 7]
[2]
  λmax [nm]: 315 nm

## O=C1/C(=C/c2ccc(-c3ccc(/C=C4\CCc5ccccc5C4=O)cc3)cc2)CCc2ccccc21 [Example 2]
[2]
  λmax [nm]: 351 nm

## CCCCCCC1CC/C(=C\c2ccc(-c3ccc(/C=C4\CCC(CCCCCC)C4=O)cc3)cc2)C1=O (centres unmarked) [Example 4]
[2]
  λmax [nm]: 282 nm

## CC(=O)/C(=C\c1ccc(-c2ccc(/C=C(\C(C)=O)C(=O)OC(C)(C)C)cc2)cc1)C(=O)OC(C)(C)C [Example 11]
[2]
  λmax [nm]: 345 nm
